# Experimental data: patent publication US20120214760A1, “TREATMENT OF URINARY TRACT INFECTIONS WITH ANTIBACTERIAL AMINOGLYCOSIDE COMPOUNDS” (Achaogen, Inc., priority 2009, published 2012)
# Where two headings read alike, the source gives them in different places.
# Experiments:
# [1] = tested on: E. coli ATCC 25922 (AECO001); assay: MIC, CLSI broth microdilution; format: cell-based; settings: Escherichia coli
# Procedure: (§1) Minimum inhibitory concentrations (MIC) were determined by reference Clinical and Laboratory Standards Institute (CLSI) broth microdilution methods per M7-A7 [2006]. Quality control ranges utilizing E. coli ATCC 25922, P. aeruginosa ATCC 27853 and S. aureus ATCC 29213, and interpretive criteria for comparator agents were as published in CLSI M100-S17 [2007]. Briefly, serial two-fold dilutions of the test compounds were prepared at 2× concentration in Mueller Hinton Broth. The compound dilutions were mixed in 96-well assay plates in a 1:1 ratio with bacterial inoculum. The inoculum was prepared by suspension of a colony from an agar plate that was prepared the previous day. Bacteria were suspended in sterile saline and added to each assay plate to obtain a final concentration of 5×10^5 CFU/mL. The plates were incubated at 35° C. for 20 hours in ambient air.
# [2] = tested on: P. aeruginosa ATCC 27853 (APAE001); assay: MIC, CLSI broth microdilution; format: cell-based; settings: Pseudomonas aeruginosa
# Procedure: as §1
# [3] = ATCC25922, read-out: MIC AECO001, Table 1, AECO001 is ATCC25922
# [4] = ATCC27853, read-out: MIC APAE001, Table 1, APAE001 is ATCC27853
Compound,"MIC [1, 3] [µg/mL]","MIC [2, 4] [µg/mL]","MIC ([1]; ATCC25922, Table 2, read-out: MIC E. coli) [µg/mL]","MIC ([1]; Table 1, AECO001 is ATCC25922, read-out: MIC AECO001) [µg/mL]","MIC ([2]; ATCC27853, Table 2, read-out: MIC P. aeruginosa) [µg/mL]"
"CN[C@@H]1[C@@H](O)[C@@H](O[C@@H]2[C@@H](O)[C@H](O[C@H]3OC(CNCC4CC(N)C4)=CC[C@H]3N)[C@@H](N)C[C@H]2NC(=O)[C@@H](O)CCN)OC[C@]1(C)O (stereo partly drawn) [Example 33, 6′-(Methyl-trans-3-amino-cyclobutyl)-1-(4-amino-2(S)-hydroxy-butyryl)-sisomicin]",< 1,1 to 16,–,–,–
CN[C@@H]1[C@@H](O)[C@@H](O[C@@H]2[C@@H](O)[C@H](O[C@H]3OC(CNCC(O)CCN)=CC[C@H]3N)[C@@H](N)C[C@H]2NC(=O)C2(O)CCNC2)OC[C@]1(C)O (stereo partly shown) [Example 35],< 1,1 to 16,–,–,–
CN[C@@H]1[C@@H](O)[C@@H](O[C@@H]2[C@@H](O)[C@H](O[C@H]3OC(CNCCO)=CC[C@H]3N)[C@@H](N)C[C@H]2NC(=O)C2(O)CNC2)OC[C@]1(C)O [Example 37],< 1,1 to 16,–,–,–
"CN[C@@H]1[C@@H](O)[C@@H](O[C@@H]2[C@@H](O)[C@H](O[C@H]3OC(CNCCN)=CC[C@H]3N)[C@@H](N)C[C@H]2NC(=O)[C@@H](O)CCN)OC[C@]1(C)O [Example 38, 6′-(2-Amino-ethyl)-1-(4-amino-2(S)-hydroxy-butyryl)-sisomicin]",< 1,1 to 16,–,–,–
CN[C@@H]1[C@@H](O)[C@@H](O[C@@H]2[C@@H](O)[C@H](O[C@H]3OC(CNCCCN)=CC[C@H]3N)[C@@H](N)C[C@H]2NC(=O)C2(O)CCNC2)OC[C@]1(C)O (stereo partly shown) [Example 40],1 to 16,1 to 16,–,–,–
CN[C@@H]1[C@@H](O)[C@@H](O[C@@H]2[C@@H](O)[C@H](O[C@H]3OC(CNCC4CC4)=CC[C@H]3N)[C@@H](N)C[C@H]2NC(=O)C2(O)CCNC2)OC[C@]1(C)O (stereo partly shown) [Example 41],< 1,1 to 16,–,–,–
"CN[C@@H]1[C@@H](O)[C@@H](O[C@@H]2[C@@H](O)[C@H](O[C@H]3OC(CNCC(O)CN)=CC[C@H]3N)[C@@H](N)C[C@H]2NC(=O)C2(O)CCNC2)OC[C@]1(C)O (stereo partly shown) [Example 42, 6′-(2-Hydroxy-3-amino-propyl)-1-(3-hydroxy-pyrrolidin-3-yl-acetyl)-sisomicin]",1 to 16,1 to 16,–,–,–
"CN[C@@H]1[C@@H](O)[C@@H](O[C@@H]2[C@@H](O)[C@H](O[C@H]3OC(CNCCCCN)=CC[C@H]3N)[C@@H](N)C[C@H]2NC(=O)[C@@H](O)CCN)OC[C@]1(C)O [Example 43, 6′-(4-Amino-butyl)-1-(4-amino-2(S)-hydroxy-butyryl)-sisomicin]",< 1,< 1,–,–,–
"CN[C@@H]1[C@@H](O)[C@@H](O[C@@H]2[C@@H](O)[C@H](O[C@H]3OC(CNCCCCCN)=CC[C@H]3N)[C@@H](N)C[C@H]2NC(=O)[C@@H](O)CCN)OC[C@]1(C)O [Example 44, 6′-(5-Amino-pentyl)-1-(4-amino-2(S)-hydroxy-butyryl)-sisomicin]",< 1,1 to 16,–,–,–
CN[C@@H]1[C@@H](O)[C@@H](O[C@@H]2[C@@H](O)[C@H](O[C@H]3OC(CNCC4(O)CC(N)C4)=CC[C@H]3N)[C@@H](N)C[C@H]2NC(=O)[C@@H](O)CCN)OC[C@]1(C)O (stereo partly shown) [Example 46],< 1,1 to 16,–,–,–
CN[C@@H]1[C@@H](O)[C@@H](O[C@@H]2[C@@H](O)[C@H](O[C@H]3OC(CNCC4(O)CC(N)C4)=CC[C@H]3N)[C@@H](N)C[C@H]2NC(=O)C2(O)CNC2)OC[C@]1(C)O (stereo partly shown) [Example 47],1 to 16,1 to 16,–,–,–
"CN[C@@H]1[C@@H](O)[C@@H](O[C@@H]2[C@@H](O)[C@H](O[C@H]3OC(CNCC4CCCN4)=CC[C@H]3N)[C@@H](N)C[C@H]2NC(=O)[C@@H](O)CCN)OC[C@]1(C)O (stereo partly drawn) [Example 49, 6′-(Methyl-pyrrolidin-2-yl)-1-(4-amino-2(S)-hydroxy-butyryl)-sisomicin]",< 1,1 to 16,–,–,–
"CN[C@@H]1[C@@H](O)[C@@H](O[C@@H]2[C@@H](O)[C@H](O[C@H]3OC(CNC[C@H](O)C(=O)O)=CC[C@H]3N)[C@@H](N)C[C@H]2NC(=O)[C@@H](O)CCN)OC[C@]1(C)O [Example 50, 6′-(2(S)-Hydroxy-3-propanoic)-1-(4-amino-2(S)-hydroxy-butyryl)-sisomicin]",> 16,> 16,–,–,–
"CN[C@@H]1[C@@H](O)[C@@H](O[C@@H]2[C@@H](O)[C@H](O[C@H]3OC(CNCC(C)(C)CN)=CC[C@H]3N)[C@@H](N)C[C@H]2NC(=O)[C@@H](O)CN)OC[C@]1(C)O [Example 51, 6′-(2,2-Dimethyl-3-amino-propyl)-1-(3-amino-2(S)-hydroxy-propionyl)-sisomicin]",< 1,> 16,–,–,–
"CN[C@@H]1[C@@H](O)[C@@H](O[C@@H]2[C@@H](O)[C@H](O[C@H]3OC(CNCCC(N)C4CC4)=CC[C@H]3N)[C@@H](N)C[C@H]2NC(=O)[C@@H](O)CN)OC[C@]1(C)O (stereo partly drawn) [Example 52, 6′-(3-Amino-3-cyclopropyl-propyl)-1-(3-amino-2(S)-hydroxy-propionyl)-sisomicin]",< 1,1 to 16,–,–,–
"CN[C@@H]1[C@@H](O)[C@@H](O[C@@H]2[C@@H](O)[C@H](O[C@H]3OC(CNC[C@H]4C[C@H](O)CN4)=CC[C@H]3N)[C@@H](N)C[C@H]2NC(=O)[C@@H](O)CN)OC[C@]1(C)O [Example 53, 6′-(Methyl-4(S)-hydroxy-pyrrolidin-2(R)-yl)-1-(3-amino-2(S)-hydroxy-propionyl)-sisomicin]",1 to 16,> 16,–,–,–
"CN[C@@H]1[C@@H](O)[C@@H](O[C@@H]2[C@@H](O)[C@H](O[C@H]3OC(CNCCCO)=CC[C@H]3N)[C@@H](N)C[C@H]2NC(=O)[C@@H](O)CN)OC[C@]1(C)O [Example 54, 6′-(3-Propanol)-1-(3-amino-2(S)-hydroxy-propionyl)-sisomicin]",< 1,1 to 16,–,–,–
"CN[C@@H]1[C@@H](O)[C@@H](O[C@@H]2[C@@H](O)[C@H](O[C@H]3OC(CNCC(C)(C)N)=CC[C@H]3N)[C@@H](N)C[C@H]2NC(=O)[C@@H](O)CN)OC[C@]1(C)O [Example 55, 6′-(2-Methyl-2-amino-propyl)-1-(3-amino-2(S)-hydroxy-propionyl)-sisomicin]",1 to 16,> 16,–,–,–
"CN[C@@H]1[C@@H](O)[C@@H](O[C@@H]2[C@@H](O)[C@H](O[C@H]3OC(CNCC4(N)CCC4)=CC[C@H]3N)[C@@H](N)C[C@H]2NC(=O)[C@@H](O)CN)OC[C@]1(C)O [Example 56, 6′-(Methyl-1-amino-cyclobutyl)-1-(3-amino-2(S)-hydroxy-propionyl)-sisomicin]",< 1,> 16,–,–,–
CN[C@@H]1[C@@H](O)[C@@H](O[C@@H]2[C@@H](O)[C@H](O[C@H]3OC(CNCCCN)=CC[C@H]3N)[C@@H](N)C[C@H]2NC(=O)C2(O)CNC2)OC[C@]1(C)O [Example 57],–,–,< 1,< 1,< 1
"CN[C@@H]1[C@@H](O)[C@@H](O[C@@H]2[C@@H](O)[C@H](O[C@H]3OC(CNC[C@H]4C[C@H](N)C4)=CC[C@H]3N)[C@@H](N)C[C@H]2NC(=O)[C@@H](O)CN)OC[C@]1(C)O [Example 59, 6′-(Methyl-trans-3-amino-cyclobutyl)-1-(3-amino-2(S)-hydroxy-propionyl)-sisomicin]",< 1,1 to 16,–,–,–
CN[C@@H]1[C@@H](O)[C@@H](O[C@@H]2[C@@H](O)[C@H](O[C@H]3OC(CNC[C@H]4C[C@H](N)C4)=CC[C@H]3N)[C@@H](N)C[C@H]2NC(=O)C2(O)CC(N)C2)OC[C@]1(C)O (stereo partly shown) [Example 60],< 1,1 to 16,–,–,–
CN[C@@H]1[C@@H](O)[C@@H](O[C@@H]2[C@@H](O)[C@H](O[C@H]3OC(CNCCO)=CC[C@H]3N)[C@@H](N)C[C@H]2NC(=O)C2(O)CC(N)C2)OC[C@]1(C)O (stereo partly shown) [Example 62],< 1,1 to 16,–,–,–
CN[C@@H]1[C@@H](O)[C@@H](O[C@@H]2[C@@H](O)[C@H](O[C@H]3OC(CNC[C@H]4C[C@H](N)C4)=CC[C@H]3N)[C@@H](N)C[C@H]2NC(=O)C2(O)CNC2)OC[C@]1(C)O [Example 63],< 1,1 to 16,–,–,–
"CN[C@@H]1[C@@H](O)[C@@H](O[C@@H]2[C@@H](O)[C@H](O[C@H]3OC(CNC[C@@H]4C[C@H](N)CN4)=CC[C@H]3N)[C@@H](N)C[C@H]2NC(=O)[C@@H](O)CN)OC[C@]1(C)O [Example 65, 6′-(Methyl-4(S)-amino-pyrrolidin-2(S)-yl)-1-(3-amino-2(S)-hydroxy-propionyl)-sisomicin]",1 to 16,1 to 16,–,–,–
"CN[C@@H]1[C@@H](O)[C@@H](O[C@@H]2[C@@H](O)[C@H](O[C@H]3OC(CNCC4(CN)CC4)=CC[C@H]3N)[C@@H](N)C[C@H]2NC(=O)[C@@H](O)CN)OC[C@]1(C)O [Example 66, 6′-(Methyl-1-aminomethyl-cyclopropyl)-1-(3-amino-2(S)-hydroxy-propionyl)-sisomicin]",< 1,1 to 16,–,–,–
"CN[C@@H]1[C@@H](O)[C@@H](O[C@@H]2[C@@H](O)[C@H](O[C@H]3OC(CNCC4(N)CC4)=CC[C@H]3N)[C@@H](N)C[C@H]2NC(=O)[C@@H](O)CN)OC[C@]1(C)O [Example 67, 6′-(Methyl-1-Amino-cyclopropyl)-1-(3-amino-2(S)-hydroxy-propionyl)-sisomicin]",1 to 16,1 to 16,–,–,–
